As a reminder, the IC50 is the concentration that inhibits the measured activity by half.

Read-outs that look alike come from different tables or passages of the source. Where a SMILES comes first, the peptide text is derived from it. Bridges are numbered along the chain shown (N, C = ends). [ ]: non-standard residue; d: D form. Ala(9-anthryl) = N[C@@H](Cc1c2ccccc2cc2ccccc12)C(=O)O; 2Thi = N[C@@H](Cc1cccs1)C(=O)O; AllylGly = C=CC[C@H](N)C(=O)O; Pen = CC(C)(S)[C@H](N)C(=O)O; Nva = CCC[C@H](N)C(=O)O; Dap = NC[C@H](N)C(=O)O

Here are results for 14 molecules from patent US12358948B2, “Neurotensinergic agonists and methods of using same preventing or treating pain” (priority 2019, dated 2025).

Assay [1] addresses T1, hNTS1 receptor (Homo sapiens, UniProt P30989).
T1 construct: membranes prepared from them
The experiment in a line: Competitive radioligand binding assay on the hNTS1 receptor. The note with it: membranes of CHO-K1 cells expressing hNTS1. An outline of the steps: (§1)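 Membranes from CHO-K1 cells expressing hNTS1 (15 µg, […] ¹²⁵I-[Tyr³]-NT) or 1321N1 cells expressing hNTS2 (50 µg, […] radioligand) were incubated with analogues at 10⁻¹¹–10⁻⁴ M for 60 min at 25 °C in Tris-HCl pH 7.5/0.2% BSA. Filtration and γ-counting followed; nonspecific binding was defined with 10⁻⁵ M NT(8-13), and IC50 was obtained by one-site fit.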

Assay [2] addresses T2, hNTS2 receptor (Homo sapiens, UniProt O95665).
T2 construct: membranes prepared from them
The experiment in a line: Competitive radioligand binding assay on the hNTS2 receptor. To be noted: for IC50: membranes of 1321N1 cells expressing hNTS2; for Selectivity: ratio IC50 for NTS1 : IC50 for NTS2. A digest of the protocol: as §1

Where [3] appears, read: displacement of 125I-[Tyr3]-NT, read-out: IC50 NTS1.
Setting [4] is: displacement of 125I-[Tyr3]-NT, read-out: IC50 NTS2 (converted).

T2 sequence (O95665 whole entry): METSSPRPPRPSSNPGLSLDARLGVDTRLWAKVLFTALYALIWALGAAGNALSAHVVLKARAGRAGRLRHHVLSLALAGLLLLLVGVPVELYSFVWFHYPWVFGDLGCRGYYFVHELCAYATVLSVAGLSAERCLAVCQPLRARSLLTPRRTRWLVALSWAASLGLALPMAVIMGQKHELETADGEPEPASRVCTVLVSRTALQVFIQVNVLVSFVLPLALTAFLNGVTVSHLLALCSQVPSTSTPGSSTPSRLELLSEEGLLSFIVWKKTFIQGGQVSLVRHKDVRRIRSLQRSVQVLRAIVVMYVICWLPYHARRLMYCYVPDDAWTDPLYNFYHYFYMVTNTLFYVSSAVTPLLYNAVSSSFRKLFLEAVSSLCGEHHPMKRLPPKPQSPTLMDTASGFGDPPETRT
T1 sequence (P30989 whole entry): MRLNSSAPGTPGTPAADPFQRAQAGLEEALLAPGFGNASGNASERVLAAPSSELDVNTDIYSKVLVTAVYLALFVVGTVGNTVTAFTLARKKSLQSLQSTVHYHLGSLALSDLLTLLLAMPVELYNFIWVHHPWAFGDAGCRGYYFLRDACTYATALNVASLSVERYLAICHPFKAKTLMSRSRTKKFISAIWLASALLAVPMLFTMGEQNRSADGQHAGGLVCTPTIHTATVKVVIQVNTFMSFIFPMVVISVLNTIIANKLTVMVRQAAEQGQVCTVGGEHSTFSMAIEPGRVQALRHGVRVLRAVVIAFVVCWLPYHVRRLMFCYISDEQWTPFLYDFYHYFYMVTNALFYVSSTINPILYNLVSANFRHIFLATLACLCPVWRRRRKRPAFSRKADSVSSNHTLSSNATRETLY

Consider `CC(C)C[C@H](NC(=O)[C@H](Cc1ccc(O)cc1)NC(=O)[C@@H]1CC=CC[C@H](NC(=O)[C@@H](N)CCCCN)C(=O)N[C@@H](CCCCN)C(=O)N[C@@H](CCCCN)C(=O)N1)C(=O)O` [compound 156, Kc[G(All)KKG(All)]YL] (H-K[AllylGly]KK[AllylGly]YL-OH; staple 2-5), for which the figures for the IC50 in assay [1] (setting [3]) and in assay [2] (setting [4]) were greater than 100 µM and 6.6 nM, respectively. In addition, the Selectivity in assay [2] turned out to be 15244.

Turning to `CC1(C(=O)N[C@@H](Cc2ccc(O)cc2)C(=O)N[C@@H](CC2CCCC2)C(=O)O)CCCC=CCCC(=O)N[C@@H](CCCCN)C(=O)N[C@@H](CCCCN)C(=O)N1` (stereo partly drawn) [compound 135, c[K(Pentenoyl)KG(alpha-Me-(4-pentenyl))]YA(cyclopentyl)], the half-maximal inhibitory concentration (IC50) was greater than 100 µM in assay [1] (setting [3]) and 45.9 nM in assay [2] (setting [4]). Further, the Selectivity in assay [2] stood at 2179.

As for `CC(C)C[C@H](NC(=O)[C@H](C)NC(=O)[C@@H]1CC=CC[C@H](N)C(=O)N[C@@H](CCCCN)C(=O)N[C@@H](CCCCN)C(=O)N1)C(=O)O` [compound 138, c[G(All)KKG(All)]AL] (H-[AllylGly]KK[AllylGly]AL-OH; staple 1-4), the IC50 was greater than 100 µM in assay [1] (setting [3]) and 582 nM in assay [2] (setting [4]). Besides, in assay [2], the Selectivity amounted to 172.

Take `CC(C)C[C@H](NC(=O)[C@H](Cc1cccs1)NC(=O)[C@@H]1CC=CC[C@H](N)C(=O)N[C@@H](CCCCN)C(=O)N[C@@H](CCCCN)C(=O)N1)C(=O)O` [compound 159, c[G(All)KKG(All)]A(2-thienyl)L] (H-[AllylGly]KK[AllylGly][2Thi]L-OH; staple 1-4): the results for the IC50 in assay [1] (setting [3]) and in assay [2] (setting [4]) were greater than 100 µM and 90 nM, respectively. Further, the Selectivity in assay [2] amounted to 1112.

For the molecule `CC(C)C[C@H](NC(=O)[C@H](Cc1ccc(O)cc1)NC(=O)[C@@H]1CSSC(C)(C)[C@H](N)C(=O)N[C@@H](CCCCN)C(=O)N[C@@H](CCCCN)C(=O)N1)C(=O)O` [compound 154, c[PenKKC]YL] (H-[Pen]KKCYL-OH; disulfide 1-4), the values for the IC50 in assay [1] (setting [3]) and in assay [2] (setting [4]) were greater than 100 µM and 1200 nM, respectively. In addition, the Selectivity in assay [2] was 81.

On to `COc1ccc(C[C@H](NC(=O)[C@H](Cc2ccc(O)cc2)NC(=O)[C@@H]2CC=CC[C@H](N)C(=O)N[C@@H](CCCCN)C(=O)N[C@@H](CCCCN)C(=O)N2)C(=O)O)cc1` [compound 62, c[G(All)KKG(All)]YY(OMe)] (H-[AllylGly]KK[AllylGly]YY(Me)-OH; staple 1-4), for which the IC50 was greater than 100 µM in assay [1] (setting [3]) and 166 nM in assay [2] (setting [4]). Also, in assay [2], the Selectivity is listed as greater than 602.

As for `CC(C)C[C@H](NC(=O)[C@H](Cc1ccc(O)cc1)NC(=O)[C@@H]1CNC(=O)C[C@H](N)C(=O)N[C@@H](CCCCN)C(=O)N[C@@H](CCCCN)C(=O)N1)C(=O)O` [compound 103, c[DKKDap]YL] (H-DKK[Dap]YL-OH; lactam 1-4), the IC50 is greater than 100 µM in assay [1] (setting [3]) and 9100 nM in assay [2] (setting [4]). Moreover, in assay [2], the Selectivity is given as greater than 11.0.

On to `CC(C)C[C@H](NC(=O)[C@H](Cc1ccc(O)cc1)NC(=O)C1(C)CCCC=CCCC(=O)N[C@@H](CCCCN)C(=O)N[C@@H](CCCCN)C(=O)N1)C(=O)O` (stereo partly drawn) [compound 132, c[K(Pentenoyl)KG(alpha-Me-(4-pentenyl))]YL], for which the IC50 in assay [1] (setting [3]) is greater than 100 µM; in assay [2] (setting [4]), 136 nM. In assay [2], the Selectivity is 733.

On to `CC(C)C[C@H](NC(=O)[C@H](Cc1ccc(O)cc1)NC(=O)[C@@H]1CC=CC[C@H](N)C(=O)N[C@@H](CN)C(=O)N[C@@H](CCCCN)C(=O)N1)C(=O)O` [compound 81, c[G(All)DapKG(All)]YL] (H-[AllylGly][Dap]K[AllylGly]YL-OH; staple 1-4), for which the results for the IC50 in assay [1] (setting [3]) and in assay [2] (setting [4]) were greater than 100 µM and 180 nM, respectively. In assay [2], the Selectivity is greater than 557.2.

As for `CC(C)C[C@H](NC(=O)[C@H](Cc1ccc(O)cc1)NC(=O)[C@@H]1CCCC[C@H](N)C(=O)N[C@@H](CCCCN)C(=O)N[C@@H](CCCCN)C(=O)N1)C(=O)O` [compound 47, Dihydro-c[G(All)KKG(All)]YL], the results for the IC50 in assay [1] (setting [3]) and in assay [2] (setting [4]) were greater than 100 µM and 94 nM, respectively. Further, the Selectivity in assay [2] is greater than 1064.

As for `CC(C)C[C@H](NC(=O)[C@H](Cc1c[nH]c2ccccc12)NC(=O)[C@@H]1CC=CC[C@H](N)C(=O)N[C@@H](CCCCN)C(=O)N[C@@H](CCCCN)C(=O)N1)C(=O)O` [compound 16, c[G(All)KKG(All)]WL] (H-[AllylGly]KK[AllylGly]WL-OH; staple 1-4), the IC50 in assay [1] (setting [3]) is greater than 100 µM; in assay [2] (setting [4]), 53.6 nM. The Selectivity in assay [2] came to 1865.

With `CCC[C@@H]1NC(=O)[C@H](CCCCN)NC(=O)[C@@H](N)CC=CC[C@@H](C(=O)N[C@@H](Cc2ccc(O)cc2)C(=O)N[C@@H](CC(C)C)C(=O)O)NC1=O` [compound 58, c[G(All)KNvaG(All)]YL] (H-[AllylGly]K[Nva][AllylGly]YL-OH; staple 1-4), the figures for the IC50 in assay [1] (setting [3]) and in assay [2] (setting [4]) were greater than 100 µM and 729 nM, respectively. Also, the Selectivity in assay [2] is reported as greater than 137.

`CC(C)C[C@H](NC(=O)[C@H](Cc1c2ccccc2cc2ccccc12)NC(=O)[C@@H]1CC=CC[C@H](N)C(=O)N[C@@H](CCCCN)C(=O)N[C@@H](CCCCN)C(=O)N1)C(=O)O` [compound 162, c[G(All)KKG(All)]A(anthryl-) L] (H-[AllylGly]KK[AllylGly][Ala(9-anthryl)]L-OH; staple 1-4): the IC50 is greater than 100 µM in assay [1] (IC50 NTS1, displacement of 125I-[Tyr3]-NT) and 19.1 nM in assay [2] (IC50 NTS2, displacement of 125I-[Tyr3]-NT). Moreover, in assay [2], the Selectivity is given as 5249.

Turning to `CC(C)C[C@H](NC(=O)[C@H](Cc1ccc(O)cc1)NC(=O)[C@@H]1CCC(=O)NC[C@H](N)C(=O)N[C@@H](CCCCN)C(=O)N[C@@H](CCCCN)C(=O)N1)C(=O)O` [compound 98, c[DapKKE]YL] (H-[Dap]KKEYL-OH; lactam 1-4), the results for the IC50 in assay [1] (setting [3]) and in assay [2] (setting [4]) were greater than 100 µM and 8180 nM, respectively. Further, in assay [2], the Selectivity was greater than 12.2.
